Results: patent US8216587B1, “Method of vaccination” (PCI Biotech AS, priority 1999, dated 2012)

Assays:
THX cells = test: Photochemically induced GFP expression after pEGFP-N1-pLys transfection (flow cytometry); type: cell-based; details: for change in GFP expression with photosensitiser and light: pEGFP-N1-pLys complex plus photosensitiser and light, FIG. 5a, 5b; for fraction of the cells positive for GFP: AlPcS2a plus pEGFP-N1-pLys complex
Description: Plasmid-pLys complexes (charge ratio, 1.7) were prepared by gently mixing 5 μg plasmid (pEGFP-N1; Clontech Laboratories, Inc., Palo Alto, Calif.) in 75 μl of HBS with 5.3 μg pLys (MW 20700; Sigma, St. Louis, Mo.) in 75 μl of HBS. The solutions were incubated for 30 min at room temperature, diluted with culture medium and added to the cells.
THX cells were incubated with 20 μg/ml AlPcS2a for 18 hours at 37° C., washed and incubated in sensitizer-free medium for 3 hours before incubation with plasmid-pLys complexes for 2 hours. The pEGFP-N1/pLys treated THX cells were washed once and incubated for 2 hours in culture medium without additions before exposure to light. The cells were incubated at 37° C. for 2 days, subcultured and further incubated for an additional 5 days before analysis of GFP expression by flow cytometry.
The cells were trypsinised, centrifuged, resuspended in 400 μl of culture medium and filtered through a 50 μm mesh nylon filter. The cells were then analysed in a FACStar plus flow cytometer (Becton Dickinson). Green Fluorescent Protein (GFP) was measured through a 510-530 nm filter after excitation with an argon laser (200 mW) tuned on 488 nm. AlPcS2a was measured through a 650 nm longpass filter after excitation with a krypton laser (50 mW) tuned on 351-356 nm. Cell doublets were discriminated from single cells by gating on the pulse width of the GFP fluorescence signal. The data were analysed with PC Lysys II software (Becton Dickinson).
The expression of GFP was analysed by flow cytometry (FIGS. 5a and b) and fluorescence microscopy (data not shown). […] The fraction of the cells that was positive for this reporter molecule increased from 1% at no light treatment to 50% after a 5-min light exposure. […] Consequently, in a light-directed manner, PCI can substantially increase the efficiency of transfection of a functional gene to THX cells.

NHIK 3025 cells = test: PCI-induced release of endocytosed HRP into the cytosol; type: cell-based, human; details: 3.2 μg/ml TPPS2a and 1 mg/ml HRP for 18 h, then light; FIG. 4
Description: In this experiment NHIK 3025 cells (carcinoma cells in situ from human cervix) were treated with the photosensitising agent TPPS2a (3.2 μg/ml) and 1 mg/ml HRP for 18 hours. HRP activity was measured according to the procedure described in Steinman et al., J. Cell Biol., 68: 665-687, 1976. Cytosol was separated from cytosol-free cell corpses by electropermeabilisation and a density centrifugation technique (Berg et al., Int. J. Cancer 59: 814-822, 1994).

BL2-G-E6 cells = test: Photochemically induced relocalisation of fluorescein-labelled ras peptide (fluorescence microscopy); type: cell-based, mouse; details: peptide plus AlPcS2a; after a 4-min exposure to red light
Description: Two different light sources were used for treatment of the cells, both consisting of a bank of 4 fluorescent tubes.
The cells were analysed by fluorescence microscopy as described in Berg. K., et al., Biochem. Biophys. Acta., 1370: 317-324, 1998. For analysis of fluorescein-labelled molecules the microscope was equipped with a 450-490 nm excitation filter, a 510 nm dichroic beam splitter and a 510-540 nm band pass emission filter.
BL2-G-E6 cells were incubated with 30 μg/ml of the fluorescein-labelled p21^ras-derived peptide for 18 hours followed by 20 μg/ml AlPcS2a for 18 hours and 1 hour in drug-free medium before exposure to red light.
To evaluate PCI for cytosolic delivery of cancer-specific peptides, a fluorescein-labelled p21^ras peptide encompassing residues 5-21 and containing a Val^12 mutation (G12V) was used (Gjertsen, M. K., et al., Int. J. Cancer, 72: 784-790, 1997). […] Similar effects were not observed in cells exposed to the fluorescein-labelled ras peptide and light only (data not shown).

Molecule	change in GFP expression with photosensitiser and light (THX cells)	fraction of endocytosed HRP released into the cytosol (NHIK 3025 cells) [%]	localisation after light exposure (BL2-G-E6 cells)	fraction of the cells positive for GFP (THX cells; after a 5-min light exposure) [%]	fraction of the cells positive for GFP (THX cells; no light treatment) [%]
Oc1cccc(-c2c3nc(c(-c4cccc(O)c4)c4ccc([nH]4)c(-c4cccc(O)c4)c4nc(c(-c5cccc(O)c5)c5ccc2[nH]5)C=C4)C=C3)c1 [3-THPP]	only a minor increase				
Horseradish Peroxidase [HRP]		> 60			
aluminum phthalocyanine with 2 sulfonate groups on adjacent phenyl rings [AlPcS2a]	strong increase		located diffusely in the cytoplasm	50	1
